Source: patent US20050009840A1 (SUGEN, INC., priority 2003, published 2005)

What follows are compounds tested against T1, Met kinase domain (GST fusion protein) (Homo sapiens, UniProt P08581) (assay: Met transphosphorylation assay (ELISA, poly(glu-tyr) substrate)). Details: read-out: Met IC50.
T1 construct: Purified GST fusion protein containing the Met kinase domain
Type: biochemical
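Further: Cell-free ELISA with plate-bound poly(Glu:Tyr 4:1) phosphorylated by GST-fused Met kinase domain plus ATP and Mn2+, phosphotyrosine detected by anti-phosphotyrosine antibody with HRP and ABTS read-out.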

T1 sequence (P08581 1078-1345 limits assumed): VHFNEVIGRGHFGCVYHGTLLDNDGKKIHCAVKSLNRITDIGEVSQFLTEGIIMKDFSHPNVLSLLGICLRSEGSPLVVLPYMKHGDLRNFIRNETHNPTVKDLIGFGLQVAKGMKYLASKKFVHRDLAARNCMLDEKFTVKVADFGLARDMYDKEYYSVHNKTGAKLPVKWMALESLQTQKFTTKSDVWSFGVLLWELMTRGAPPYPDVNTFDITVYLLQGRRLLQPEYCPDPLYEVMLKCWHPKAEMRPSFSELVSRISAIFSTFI

SMILES | IC50
CCN(CC)CCS(=O)(=O)Nc1cccc(-c2cnc(N)c(OCc3c(F)ccc(F)c3Cl)n2)c1 [II-25, 2-Diethylamino-ethanesulfonic acid {3-[5-amino-6-(2-chloro-3,6-difluoro-benzyloxy)-pyrazin-2-yl]-phenyl}-amide] | 3700 nM
Nc1ncc(-c2cccc(NS(=O)(=O)CCN3CCOCC3)c2)nc1OCc1c(F)ccc(F)c1Cl [II-26, 2-Morpholin-4-yl-ethanesulfonic acid {3-[5-amino-6-(2-chloro-3,6-difluoro-benzyloxy)-pyrazin-2-yl]-phenyl}-amide] | 3300 nM
Nc1ncc(-c2cccc(NS(=O)(=O)CCN3CCCC3)c2)nc1OCc1c(F)ccc(F)c1Cl [II-27, 2-Pyrrolidin-1-yl-ethanesulfonic acid {3-[5-amino-6-(2-chloro-3,6-difluoro-benzyloxy)-pyrazin-2-yl]-phenyl}-amide] | 1800 nM
CN(C)CCS(=O)(=O)Nc1cccc(-c2cnc(N)c(OCc3c(F)ccc(F)c3Cl)n2)c1 [II-28, 2-Dimethylamino-ethanesulfonic acid {3-[5-amino-6-(2-chloro-3,6-difluoro-benzyloxy)-pyrazin-2-yl]-phenyl}-amide] | 2280 nM
Nc1ncc(-c2cccc(NS(=O)(=O)CCN3CCN(C(=O)CO)CC3)c2)nc1OCc1c(F)ccc(F)c1Cl [II-29] | 1820 nM
Nc1ncc(-c2cccc(NS(=O)(=O)CCNCC3CC3)c2)nc1OCc1c(F)ccc(F)c1Cl [II-30, 2-(Cyclopropylmethyl-amino)-ethanesulfonic acid {3-[5-amino-6-(2-chloro-3,6-difluoro-benzyloxy)-pyrazin-2-yl]-phenyl}-amide] | 1840 nM
Nc1ncc(-c2cccc(NS(=O)(=O)CCN3CC[C@@H](O)C3)c2)nc1OCc1c(F)ccc(F)c1Cl [II-31, 2-[(3R)-3-Hydroxy-pyrrolidin-1-yl]-ethanesulfonic acid {3-[5-amino-6-(2-chloro-3,6-difluoro-benzyloxy)-pyrazin-2-yl]-phenyl}-amide] | 2160 nM
Nc1ncc(-c2cccc(NS(=O)(=O)CCNC3CC3)c2)nc1OCc1c(F)ccc(F)c1Cl [II-32, 2-Cyclopropylamino-ethanesulfonic acid {3-[5-amino-6-(2-chloro-3,6-difluoro-benzyloxy)-pyrazin-2-yl]-phenyl}-amide] | 2130 nM
Nc1ncc(-c2ccc(C(=O)N3CCC[C@@H]3CN3CCCC3)cc2)nc1OCc1c(F)ccc(F)c1Cl [II-34, {4-[5-Amino-6-(2-chloro-3,6-difluoro-benzyloxy)-pyrazin-2-yl]-phenyl)-[(2R)-2-pyrrolidin-1-ylmethyl-pyrrolidin-1-yl]-methanone] | 150 nM
CC(=O)N1CCN(CCNC(=O)c2ccc(-c3cnc(N)c(OCc4c(F)ccc(F)c4Cl)n3)cc2)CC1 [II-37, N-[2-(4-Acetyl-piperazin-1-yl)-ethyl]-4-[5-amino-6-(2-chloro-3,6-difluoro-benzyloxy)-pyrazin-2-yl]-benzamide] | 1350 nM
Nc1ncc(-c2ccc(C(=O)NCCCN3CCCC3)cc2)nc1OCc1c(F)ccc(F)c1Cl [II-38, 4-[5-Amino-6-(2-chloro-3,6-difluoro-benzyloxy)-pyrazin-2-yl]-N-(3-pyrrolidin-1-yl-propyl)-benzamide] | 580 nM
CN(C)[C@H]1CCN(C(=O)c2ccc(-c3cnc(N)c(OCc4c(F)ccc(F)c4Cl)n3)cc2)C1 [II-39, {4-[5-Amino-8-(2-chloro-3,6-difluoro-benzyloxy)-pyrazin-2-yl]-phenyl}-[(3S)-3-dimethylamino-pyrrolidin-1-yl]-methanone] | 670 nM
Nc1ncc(-c2ccc(C(=O)NCCCN3CCOCC3)cc2)nc1OCc1c(F)ccc(F)c1Cl [II-43, 4-[5-Amino-6-(2-chloro-3,6-difluoro-benzyloxy)-pyrazin-2-yl]-N-(3-morpholin-4-yl-propyl)-benzamide] | 590 nM
Nc1ncc(-c2cccc(C(=O)NCCCN3CCOCC3)c2)nc1OCc1c(F)ccc(F)c1Cl [II-52, 3-[5-Amino-6-(2-chloro-3,6-difluoro-benzyloxy)-pyrazin-2-yl]-N-(3-morpholin-4-yl-propyl)-benzamide] | 4200 nM
CC(=O)N1CCN(CCNC(=O)c2cccc(-c3cnc(N)c(OCc4c(F)ccc(F)c4Cl)n3)c2)CC1 [II-59, N-[2-(4-Acetyl-piperazin-1-yl)-ethyl]-3-[5-amino-6-(2-chloro-3,6-difluoro-benzyloxy)-pyrazin-2-yl]-benzamide] | 2770 nM
Nc1ncc(-c2cccc(C(=O)NCCCN3CCCC3)c2)nc1OCc1c(F)ccc(F)c1Cl [II-60, 3-[5-Amino-6-(2-chloro-3,6-difluoro-benzyloxy)-pyrazin-2-yl]-N-(3-pyrrolidin-1-yl-pyropyl)-benzamide] | 1480 nM
C[C@@H]1CN(Cc2c[nH]c3ccc(-c4cnc(N)c(OCc5c(F)ccc(F)c5Cl)n4)cc23)C[C@H](C)O1 [II-65, 3-(2-Chloro-3,6-difluoro-benzyloxy)-5-[3-(2,6-dimethyl-morpholin-4-ylmethyl)-1H-indol-5-yl]-pyrazin-2-ylamine] | 2400 nM

Further lines, results first:

IC50 | SMILES
130 nM | Nc1ncc(-c2ccc(C(=O)NCCN3CCCC3)cc2)nc1OCc1c(F)ccc(F)c1Cl [II-35, 4-[5-Amino-6-(2-chloro-3,6-difluoro-benzyloxy)-pyrazin-2-yl]-N-(2-pyrrolidin-1-yl-ethyl)-benzamide]
370 nM | Nc1ncc(-c2ccc(C(=O)N3CC[C@H](N)C3)cc2)nc1OCc1c(F)ccc(F)c1Cl [II-36, {4-[5-Amino-6-(2-chloro-3,6-difluoro-benzyloxy)-pyrazin-2-yl]-phenyl}-[(3S)-3-amino-pyrrolidin-1-yl]-methanone]
1110 nM | Nc1ncc(-c2ccc(C(=O)NCCN3CCOCC3)cc2)nc1OCc1c(F)ccc(F)c1Cl [II-45, 4-[5-Amino-6-(2-chloro-3,6-difluoro-benzyloxy)-pyrazin-2-yl]-N-(2-morpholin-4-yl-ethyl)-benzamide]
680 nM | CN1CCN(C(=O)c2ccc(-c3cnc(N)c(OCc4c(F)ccc(F)c4Cl)n3)cc2)CC1 [II-46, {4-[5-Amino-6-(2-chloro-3,6-difluoro-benzyloxy)-pyrazin-2-yl]-phenyl}-(4-methyl-piperazin-1-yl)-methanone]
2850 nM | CN1CCN(C(=O)c2cccc(-c3cnc(N)c(OCc4c(F)ccc(F)c4Cl)n3)c2)CC1 [II-48, {3-[5-Amino-6-(2-chloro-3,6-difluoro-benzyloxy)-pyrazin-2-yl]-phenyl}-(4-methyl-piperazin-1-yl)-methanone]
1020 nM | Nc1ncc(-c2cccc(C(=O)N3CC[C@@H](N)C3)c2)nc1OCc1c(F)ccc(F)c1Cl [II-49, {3-[5-Amino-6-(2-chloro-3,6-difluoro-benzyloxy)-pyrazin-2-yl]-phenyl}-[(3R)-3-amino-pyrrolidin-1-yl]-methanone]
910 nM | Nc1ncc(-c2cccc(C(=O)N3CC[C@H](N)C3)c2)nc1OCc1c(F)ccc(F)c1Cl [II-50, {3-[5-Amino-6-(2-chloro-3,6-difluoro-benzyloxy)-pyrazin-2-yl]-phenyl}-[(3S)-3-amino-pyrrolidin-1-yl]-methanone]
1600 nM | Nc1ncc(-c2cccc(C(=O)NCCN3CCCC3)c2)nc1OCc1c(F)ccc(F)c1Cl [II-55, 3-[5-Amino-6-(2-chloro-3,6-difluoro-benzyloxy)-pyrazin-2-yl]-N-(2-pyrrolidin-1-yl-ethyl)-benzamide]
630 nM | Nc1ncc(-c2cccc(C(=O)N3CCC[C@H]3CN3CCCC3)c2)nc1OCc1c(F)ccc(F)c1Cl [II-57, {3-[5-Amino-6-(2-chloro-3,6-difluoro-benzyloxy)-pyrazin-2-yl]-phenyl}-[(2S)-pyrrolidin-1-ylmethyl-pyrrolidin-1-yl]-methanone]
2500 nM | Nc1ncc(-c2cccc(C(=O)NCCN3CCOCC3)c2)nc1OCc1c(F)ccc(F)c1Cl [II-58, 3-[5-Amino-6-(2-chloro-3,6-difluoro-benzyloxy)-pyrazin-2-yl]-N-(2-morpholin-4-yl-ethyl)-benzamide]
350 nM | Nc1ncc(-c2ccc3[nH]cc(CN4CCCC4)c3c2)nc1OCc1c(F)ccc(F)c1Cl [II-62, 3-(2-Chloro-3,6-difluoro-benzyloxy)-5-(3-pyrrolidin-1-ylmethyl-1H-indol-5-yl)-pyrazin-2-ylamine]
730 nM | CCN(CC)Cc1c[nH]c2ccc(-c3cnc(N)c(OCc4c(F)ccc(F)c4Cl)n3)cc12 [II-63, 3-(2-Chloro-3,6-difluoro-benzyloxy)-5-(3-diethylaminomethyl-1H-indol-5-yl)-pyrazin-2-ylamine]
1500 nM | CC(=O)N1CCN(Cc2c[nH]c3ccc(-c4cnc(N)c(OCc5c(F)ccc(F)c5Cl)n4)cc23)CC1 [II-64, 1-(4-{5-[5-Amino-6-(2-chloro-3,6-difluoro-benzyloxy)-pyrazin-2-yl]-1H-indol-3-ylmethyl}-piperazin-1-yl)-ethanone]
550 nM | CC(=O)N[C@H]1CCN(Cc2c[nH]c3ccc(-c4cnc(N)c(OCc5c(F)ccc(F)c5Cl)n4)cc23)C1 [II-66, N-(1-{5-[5-Amino-6-(2-chloro-3,6-difluoro-benzyloxy)-pyrazin-2-yl]-1H-indol-3-ylmethyl}-(3S)-pyrrolidin-3-yl)-acetamide]
510 nM | Nc1ncc(-c2ccc3[nH]cc(CN4CCCCC4)c3c2)nc1OCc1c(F)ccc(F)c1Cl [II-67, 3-(2-Chloro-3,6-difluoro-benzyloxy)-5-(3-piperidin-1-ylmethyl-1H-indol-5-yl)-pyrazin-2-ylamine]
1150 nM | Nc1ncc(-c2ccc3[nH]cc(CN4CCOCC4)c3c2)nc1OCc1c(F)ccc(F)c1Cl [II-68, 3-(2-Chloro-3,6-difluoro-benzyloxy)-5-(3-morpholin-4-ylmethyl-1H-indol-5-yl)-pyrazin-2-ylamine]
10600 nM | CC(C)C(Oc1nc(-c2ccc(OCCN3CCOCC3)cc2)cnc1N)c1c(F)ccc(F)c1Cl (stereo not drawn) [II-69, 3-[1-(2-Chloro-3,6-difluoro-phenyl)-2-methyl-propoxy]-5-[4-(2-morpholin-4-yl-ethoxy)-phenyl]-pyrazin-2-ylamine]
510 nM | CC(Oc1nc(-c2ccc(OCCN3CCOCC3)cc2)cnc1N)c1c(F)ccc(F)c1Cl (stereo not drawn) [II-70]
300 nM | CC(Oc1nc(-c2ccc(OCCN3CCOCC3)cc2)cnc1N)c1c(Cl)ccc(F)c1Cl (stereo not drawn) [II-71, 3-[1-(2,6-Dichloro-3-fluoro-phenyl)-ethoxy]-5-[4-(2-morpholin-4-yl-ethoxy)-phenyl]-pyrazin-2-ylamine; compound with trifluoro-acetic acid]
